Assay results reported in US9695155B2, “Herbicidal substituted pyrimidinyloxy benzene compounds” (E. I. DU PONT DE NEMOURS AND COMPANY, priority 2013, dated 2017).

Tests used:
johnsongrass = test: Test C postemergence; type: in vivo, Sorghum halepense
Procedure, shortened: (§1)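 Preemergence: seeds sown in a loam soil–sand blend and sprayed with test chemical in a non-phytotoxic solvent mixture containing surfactant. Postemergence: plants at 2 to 18 cm (1- to 4-leaf stage) in peat-based medium, treated with the same formulation. Greenhouse 13 to 15 days, then visual rating 0 (no effect) to 100 (complete control).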

galium = test: Test C postemergence; type: in vivo, Galium aparine
Procedure, shortened: as §1

giant foxtail = test: Test A preemergence; type: in vivo, Setaria faberii; details: for Foxtail, Giant plant response rating: 500 g ai/ha
Procedure, shortened: (§2)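 Injury scores run from 0, no effect, to 100, complete control, judged by eye against untreated plants roughly 10 days after treatment. Chemicals carried a surfactant in a non-phytotoxic solvent and went onto loam–sand soil preemergence or onto one- to two-leaf seedlings postemergence.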

wheat = test: Test A preemergence; type: in vivo, Triticum aestivum; details: for Wheat plant response rating: 500 g ai/ha
Procedure, shortened: as §2

blackgrass = test: Test C postemergence; type: in vivo, Alopecurus myosuroides
Procedure, shortened: as §1

barnyardgrass [1] = test: Test C postemergence; type: in vivo, Echinochloa crus-galli
Procedure, shortened: as §1

large (Lg) crabgrass = test: Test C postemergence; type: in vivo, Digitaria sanguinalis
Procedure, shortened: as §1

wild oat = test: Test C postemergence; type: in vivo, Avena fatua
Procedure, shortened: as §1

oilseed rape = test: Test C postemergence; type: in vivo, Brassica napus
Procedure, shortened: as §1

waterhemp = test: Test C postemergence; type: in vivo, Amaranthus rudis
Procedure, shortened: as §1

pigweed [2] = test: Test A preemergence; type: in vivo, Amaranthus retroflexus; details: for Pigweed plant response rating: 500 g ai/ha
Procedure, shortened: as §2

pigweed [3] = test: Test A postemergence; type: in vivo, Amaranthus retroflexus
Procedure, shortened: as §2

velvetleaf = test: Test A postemergence; type: in vivo, Abutilon theophrasti
Procedure, shortened: as §2

lambsquarters = test: Test C postemergence; type: in vivo, Chenopodium album
Procedure, shortened: as §1

barnyardgrass [4] = test: Test A preemergence; type: in vivo, Echinochloa crus-galli; details: for Barnyardgrass plant response rating: 500 g ai/ha
Procedure, shortened: as §2

[5] = 31 g ai/ha, postemergence, visual rating, scale 0 to 100 (0 no effect, 100 complete control), 13 to 15 days
[6] = 125 g ai/ha, postemergence, visual rating, scale 0 to 100 (0 no effect, 100 complete control)
[7] = Postemergence, 62 g ai/ha, scale 0 to 100 (0 no effect, 100 complete control), 13 to 15 days
[8] = 0 to 100 scale where 0 is no effect and 100 is complete control
[9] = Postemergence, 62 g ai/ha, scale 0 to 100 (0 no effect, 100 complete control)
[10] = 125 g ai/ha, 0 to 100 scale where 0 is no effect and 100 is complete control
[11] = 500 g ai/ha, 0 to 100 scale where 0 is no effect and 100 is complete control
[12] = Postemergence, 31 g ai/ha, scale 0 to 100 (0 no effect, 100 complete control), 13 to 15 days
[13] = 0 to 100 scale, 0 no effect, 100 complete control, approx. 10 days
[14] = 500 g ai/ha, 0 to 100 scale, 0 no effect, 100 complete control

SMILES: N#Cc1cnn(-c2c(C#N)cccc2Oc2ncc(Cl)cn2)c1 [Compound 200]
- Johnsongrass plant response rating (johnsongrass; [5]): 5
- Plant response rating, Johnsongrass (johnsongrass; [6]): 5
- Plant response rating (0 to 100), Johnsongrass (johnsongrass; 250 g ai/ha, postemergence): 30
- Plant response rating, Johnsongrass (johnsongrass; [7]): 5
- Galium plant response rating (galium; [5]): 60
- Plant response rating, Galium (galium; [6]): 85
- Plant response rating (0 to 100), Galium (galium; 250 g ai/ha, postemergence): 95
- Plant response rating, Galium (galium; [7]): 65
- Foxtail, Giant plant response rating (0 to 100 scale) (giant foxtail; 125 g ai/ha): 100
- Foxtail, Giant plant response rating (giant foxtail; [8]): 100
- Wheat plant response rating (0 to 100 scale) (wheat; 125 g ai/ha): 30
- Wheat plant response rating (wheat; [8]): 50
- Blackgrass plant response rating (blackgrass; [5]): 5
- Plant response rating, Blackgrass (blackgrass; [6]): 10
- Plant response rating (0 to 100), Blackgrass (blackgrass; 250 g ai/ha, postemergence): 35
- Plant response rating, Blackgrass (blackgrass; [7]): 5
- Barnyardgrass plant response rating (barnyardgrass [1]; [5]): 0
- Plant response rating, Barnyardgrass (barnyardgrass [1]; [6]): 10
- Plant response rating (0 to 100), Barnyardgrass (barnyardgrass [1]; 250 g ai/ha, postemergence): 15
- Plant response rating, Barnyardgrass (barnyardgrass [1]; [9]): 5
- Crabgrass, Large plant response rating (large (Lg) crabgrass; [5]): 5
- Plant response rating, Crabgrass, Large (large (Lg) crabgrass; [6]): 15
- Plant response rating (0 to 100), Crabgrass, Large (large (Lg) crabgrass; 250 g ai/ha, postemergence): 20
- Plant response rating, Crabgrass, Large (large (Lg) crabgrass; [7]): 5
- Oat, Wild plant response rating (wild oat; [5]): 15
- Plant response rating, Oat, Wild (wild oat; [6]): 25
- Plant response rating (0 to 100), Oat, Wild (wild oat; 250 g ai/ha, postemergence): 20
- Plant response rating, Oat, Wild (wild oat; [7]): 15
- Oilseed Rape plant response rating (oilseed rape; [5]): 55
- Plant response rating, Oilseed Rape (oilseed rape; [6]): 50
- Plant response rating (0 to 100), Oilseed Rape (oilseed rape; 250 g ai/ha, postemergence): 70
- Plant response rating, Oilseed Rape (oilseed rape; [7]): 55
- Waterhemp plant response rating (waterhemp; [5]): 70
- Plant response rating, Waterhemp (waterhemp; [6]): 90
- Plant response rating (0 to 100), Waterhemp (waterhemp; 250 g ai/ha, postemergence): 95
- Plant response rating, Waterhemp (waterhemp; [7]): 98
- Pigweed plant response rating (0 to 100 scale) (pigweed [2]; 125 g ai/ha): 100
- Pigweed plant response rating (pigweed [2]; [8]): 100
- Pigweed plant response rating (pigweed [3]; [10]): 100
- Plant response rating, Pigweed (pigweed [3]; [11]): 100
- Velvetleaf plant response rating (velvetleaf; [10]): 100
- Plant response rating, Velvetleaf (velvetleaf; [11]): 100
- Lambsquarters plant response rating (lambsquarters; [5]): 80
- Plant response rating, Lambsquarters (lambsquarters; [6]): 85
- Plant response rating (0 to 100), Lambsquarters (lambsquarters; 250 g ai/ha, postemergence): 95
- Plant response rating, Lambsquarters (lambsquarters; [7]): 80
- Barnyardgrass plant response rating (0 to 100 scale, 0 is no effect, 100 is complete control) (barnyardgrass [4]; 125 g ai/ha): 80
- Barnyardgrass plant response rating (barnyardgrass [4]; [8]): 90

SMILES: N#Cc1cccc(Oc2ncc(Br)cn2)c1-n1cc(Br)cn1 [Compound 57]
- Plant response rating (0 to 100), Johnsongrass (johnsongrass; 125 g ai/ha, postemergence): 5
- Plant response rating (0 to 100), Johnsongrass (johnsongrass; 250 g ai/ha, postemergence): 20
- Plant response rating, Johnsongrass (johnsongrass; [12]): 5
- Plant response rating, Johnsongrass (johnsongrass; [9]): 5
- Plant response rating (0 to 100), Galium (galium; 125 g ai/ha, postemergence): 70
- Plant response rating (0 to 100), Galium (galium; 250 g ai/ha, postemergence): 95
- Plant response rating, Galium (galium; [12]): 50
- Plant response rating, Galium (galium; [9]): 50
- Plant response rating, Foxtail, Giant (giant foxtail; [10]): 80
- Foxtail, Giant plant response rating (giant foxtail; [13]): 100
- Plant response rating, Wheat (wheat; [10]): 0
- Wheat plant response rating (wheat; [13]): 50
- Plant response rating (0 to 100), Blackgrass (blackgrass; 125 g ai/ha, postemergence): 30
- Plant response rating (0 to 100), Blackgrass (blackgrass; 250 g ai/ha, postemergence): 30
- Plant response rating, Blackgrass (blackgrass; [12]): 10
- Plant response rating, Blackgrass (blackgrass; [9]): 15
- Plant response rating (0 to 100), Barnyardgrass (barnyardgrass [1]; 125 g ai/ha, postemergence): 10
- Plant response rating (0 to 100), Barnyardgrass (barnyardgrass [1]; 250 g ai/ha, postemergence): 15
- Plant response rating, Barnyardgrass (barnyardgrass [1]; [12]): 5
- Plant response rating, Barnyardgrass (barnyardgrass [1]; [9]): 10
- Plant response rating (0 to 100), Crabgrass, Large (large (Lg) crabgrass; 125 g ai/ha, postemergence): 10
- Plant response rating (0 to 100), Crabgrass, Large (large (Lg) crabgrass; 250 g ai/ha, postemergence): 30
- Plant response rating, Crabgrass, Large (large (Lg) crabgrass; [12]): 5
- Plant response rating, Crabgrass, Large (large (Lg) crabgrass; [9]): 5
- Plant response rating (0 to 100), Oat, Wild (wild oat; 125 g ai/ha, postemergence): 30
- Plant response rating (0 to 100), Oat, Wild (wild oat; 250 g ai/ha, postemergence): 35
- Plant response rating, Oat, Wild (wild oat; [12]): 10
- Plant response rating, Oat, Wild (wild oat; [9]): 15
- Plant response rating (0 to 100), Oilseed Rape (oilseed rape; 125 g ai/ha, postemergence): 80
- Plant response rating (0 to 100), Oilseed Rape (oilseed rape; 250 g ai/ha, postemergence): 85
- Plant response rating, Oilseed Rape (oilseed rape; [12]): 30
- Plant response rating, Oilseed Rape (oilseed rape; [9]): 40
- Plant response rating (0 to 100), Waterhemp (waterhemp; 125 g ai/ha, postemergence): 80
- Plant response rating (0 to 100), Waterhemp (waterhemp; 250 g ai/ha, postemergence): 90
- Plant response rating, Waterhemp (waterhemp; [12]): 75
- Plant response rating, Waterhemp (waterhemp; [9]): 80
- Plant response rating, Pigweed (pigweed [2]; [10]): 100
- Pigweed plant response rating (pigweed [2]; [13]): 100
- Plant response rating, Pigweed (pigweed [3]; [10]): 100
- Plant response rating, Pigweed (pigweed [3]; [14]): 100
- Plant response rating, Velvetleaf (velvetleaf; [10]): 100
- Plant response rating, Velvetleaf (velvetleaf; [14]): 100
- Plant response rating (0 to 100), Lambsquarters (lambsquarters; 125 g ai/ha, postemergence): 70
- Plant response rating (0 to 100), Lambsquarters (lambsquarters; 250 g ai/ha, postemergence): 85
- Plant response rating, Lambsquarters (lambsquarters; [12]): 70
- Plant response rating, Lambsquarters (lambsquarters; [9]): 70
- Plant response rating, Barnyardgrass (barnyardgrass [4]; [10]): 60
- Barnyardgrass plant response rating (barnyardgrass [4]; [13]): 100
